Experimental findings from the OPERA property sets (Mansouri et al. 2018) are described below.

Compound `CC=CC#CC#CC#CC=CC(Cl)CO` (stereo unspecified) displayed a logP of 3.91. On to `CC=CC#CC#CC=CC(=O)OC`, for which the logP was found to be 2.45.

In the case of `O=CC=CC#CC#Cc1ccccc1`, the logP was 3.09. Turning to `CC=CC#CC=C1C=CC(=O)O1`, the lipophilicity (logP) stood at 2.09. To `CC#CC#CC#Cc1ccccc1` belongs 4.91. As for `CC=CC#CC#Cc1ccccc1`, the figure is 4.76. `c1csc(-c2ccc(-c3cccs3)s2)c1` came in with a logP of 5.57. For the compound `OCC=CC#CC#Cc1ccccc1`, the logP turned out to be 2.48. `CC#CC#Cc1ccc(C#CC(Cl)COC(C)=O)s1` (stereo unspecified): the logP came to 4.6. As for `C=CC#Cc1ccc(-c2cccs2)s1`, the figure is 5.15; as for `CC#CC#CC#CC=CC(=O)OC`, 3.85.

As usually defined, the logP is the decadic logarithm of the partition coefficient of the neutral form, usually between octanol and water. Read a high logP as higher lipophilicity.
